“Also recorded” adds a separate entry of the source.
Assays:
[1] = test system: pp-VSV-SARS-CoV-2; assay: Adhesion of pp-VSV-SARS-CoV-2 on Vero cells, flow cytometry with anti-spike S1; assay type: cell-based; conditions: 20 minutes infection in presence of lipid
[2] = test system: lymphocytic choriomeningitis virus (LCMV); assay type: cell-based, LCMV strain WE; conditions: 24 hours
[3] = target: T1, recombinant ACE2 (Homo sapiens, UniProt Q9BYF1); assay: Binding of lipids to immobilized recombinant ACE2; conditions: sphingosine at 2 μM
T1 construct: purchased Abcam ab273687
T1 sequence (Q9BYF1 18-805): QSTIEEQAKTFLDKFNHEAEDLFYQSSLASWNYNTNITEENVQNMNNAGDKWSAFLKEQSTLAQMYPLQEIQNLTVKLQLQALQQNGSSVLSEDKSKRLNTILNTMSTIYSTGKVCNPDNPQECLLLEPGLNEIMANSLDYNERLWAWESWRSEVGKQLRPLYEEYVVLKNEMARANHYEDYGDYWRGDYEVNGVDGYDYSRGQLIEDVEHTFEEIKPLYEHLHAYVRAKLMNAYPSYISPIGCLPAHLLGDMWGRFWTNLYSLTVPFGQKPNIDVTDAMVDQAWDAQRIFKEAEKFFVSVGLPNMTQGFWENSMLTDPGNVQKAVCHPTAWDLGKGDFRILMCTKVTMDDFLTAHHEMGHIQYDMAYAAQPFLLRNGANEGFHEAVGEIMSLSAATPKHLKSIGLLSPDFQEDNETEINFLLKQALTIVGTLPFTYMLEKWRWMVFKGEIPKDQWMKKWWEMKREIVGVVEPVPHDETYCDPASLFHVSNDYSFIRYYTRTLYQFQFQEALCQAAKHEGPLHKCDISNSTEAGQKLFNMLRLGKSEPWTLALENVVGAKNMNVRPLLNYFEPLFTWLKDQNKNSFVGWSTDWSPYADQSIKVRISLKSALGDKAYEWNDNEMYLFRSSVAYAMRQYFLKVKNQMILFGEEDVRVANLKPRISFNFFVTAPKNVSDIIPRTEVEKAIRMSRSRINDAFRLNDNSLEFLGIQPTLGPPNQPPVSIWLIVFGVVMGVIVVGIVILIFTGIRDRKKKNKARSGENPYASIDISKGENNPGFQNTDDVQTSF

[4] = test system: lymphocytic choriomeningitis virus (LCMV); assay type: cell-based, LCMV strain WE
[5] = test system: vesicular stomatitis virus (VSV); assay type: cell-based, VSV strain Indiana; conditions: 24 hours

Row | Compound | binding of pp-VSV-SARS-CoV-2 to the cell surface [1] | binding of lipid to immobilized recombinant ACE2 (beads) [3] | also measured
1 | CCCCCCCCCCCCC/C=C/[C@@H](O)[C@H](CO)NC(=O)CCCCCCCCCCCCCCC [C16-ceramide] | None of the other lipids had an effect |  | 
2 | Oc1ccc(Nc2nc(-c3ccc(Cl)cc3)cs2)cc1 [SKII, [2-(p-hydroxyanilino)-4-(p-chlorophenyl)thiazole]] |  |  | spreading of the virus (LCMV-infected cells) [2]: inhibits spreading of the virus; also recorded: inhibits the spreading of the virus
3 | CCCCCCCCCCCCC/C=C/[C@@H](O)[C@@H](N)COP(=O)(O)O [sphingosine 1-phosphate] | None of the other lipids had an effect | showed no interation with the beads | 
4 | cardiolipin | None of the other lipids had an effect | showed no interation with the beads | 
5 | ceramide |  | showed no interation with the beads | 
6 | lactosyl-ceramide | None of the other lipids had an effect |  | 
7 | phosphatidyl-ethanolamine |  | showed no interation with the beads | 
8 | phosphatidylcholine | None of the other lipids had an effect | showed no interation with the beads | 
9 | sphingomyelin | None of the other lipids had an effect | showed no interation with the beads | 
10 | sphingomyelinase |  |  | propagation of LCMV (infectious LCMV particles in the supernatant) [4]: reduced propagation of LCMV; also recorded: inhibits the propagation of LCMV; propagation of VSV (number of plaques) [5]: inhibits the propagation of VSV

Source: patent publication US11298412B2, “Sphingoid compounds for prophylaxis and/or therapy of coronaviridae infection” (priority 2020, dated 2022)
